{
  "source": "patent US20240285626A1",
  "about": "“INFIGRATINIB FOR TREATMENT OF FGFR3-RELATED SKELETAL DISEASES DURING PREGNANCY” (INSERM (INSTITUT NATIONAL DE LA SANTÉ ET DE LA RECHERCHE …, priority 2018, published 2024)",
  "key": {"[1]": {"tested_on": "Fgfr3Y367C/+ pups exhibiting dwarfism", "details": "Komla-Ebri et al 2016; Biosse Duplan et al 2016; cited from earlier work"}, "Fgfr3Y367C/+ pups": {"tested_on": "Fgfr3Y367C/+ pups", "type": "in vivo, mice", "experimental": "We treated pregnant female Fgfr3^Neo/Y367C mice that were mated with Cre^CMV/+ male mice (Pannier, S., Couloigner, V., Messaddeq, N., Elmaleh-Bergès, M., Munnich, A., Romand, R., & Legeai-Mallet, L. (2009). Activating Fgfr3 Y367C. mutation causes hearing loss and inner ear defect in a mouse model of chondrodysplasia. Biochimica et Biophysica Acta (BBA)-Molecular Basis of Disease, 1792(2), 140-147.). We injected BGJ398 (4 mg/kg) subcutaneously in 5 pregnant mice at day E14.5 continuing daily through day 1 (after birth). The pregnant mice received 5 injections of BGJ398 before delivery. We applied isofluorane inhalation to the pregnant mice during 20 seconds before the subcutaneous injections. All the pups were analyzed at day 1 after birth. At necropsy, all the long bones were measured and embedded in paraffin and were submitted to histology and immunology."}, "[2]": {"details": "Fgfr3Y367C/+ pups, day 1 after birth, mothers 4 mg/kg s.c. daily from E14.5, vs vehicle"}, "[3]": {"details": "femur histology, H&E staining, vs vehicle, data not shown"}},
  "data": [
    {"smiles": "CCN1CCN(c2ccc(Nc3cc(N(C)C(=O)Nc4c(Cl)c(OC)cc(OC)c4Cl)ncn3)cc2)CC1", "note": "[BGJ398, 3-(2,6-dichloro-3,5-dimethoxyphenyl)-1-[6-[4-(4-ethylpiperazin-1-yl)anilino]pyrimidin-4-yl]-1-methylurea]", "values": [
      {"measurement": "pathological hallmarks of ACH", "setting": "[1]", "value": "corrects pathological hallmarks of ACH"},
      {"measurement": "skeletal phenotype at birth", "setting": "Fgfr3Y367C/+ pups; 4 Fgfr3Y367C/+ pups that received BGJ398 vs 5 that received vehicle", "value": "improvement of the skeletal phenotype"},
      {"measurement": "length of the upper limbs (humerus, ulna, radius), in words", "setting": "Fgfr3Y367C/+ pups; FIG. 1A-C, pups at day 1, mothers 4 mg/kg s.c.", "value": "significant improvement of the length"},
      {"measurement": "length of the lower limbs (femur, tibia), in words", "setting": "Fgfr3Y367C/+ pups; FIG. 2A-B, pups at day 1, mothers 4 mg/kg s.c.", "value": "improvement of the length"},
      {"measurement": "improvement of the size of tibia", "setting": "Fgfr3Y367C/+ pups; [2]", "value": "+4.32%"},
      {"measurement": "increase of the length of humerus", "setting": "Fgfr3Y367C/+ pups; [2]", "value": "+4.35%"},
      {"measurement": "increase of the length of ulna", "setting": "Fgfr3Y367C/+ pups; [2]", "value": "+6.12%"},
      {"measurement": "organization of chondrocytes in the proliferative zone of the growth plate cartilage", "setting": "Fgfr3Y367C/+ pups; [3]", "value": "well organized"},
      {"measurement": "size of the hypertrophic chondrocytes in the hypertrophic zone", "setting": "Fgfr3Y367C/+ pups; [3]", "value": "increased"},
      {"measurement": "placental transfer", "setting": "Fgfr3Y367C/+ pups; mouse, in vivo", "value": "cross the placenta at therapeutic level"},
      {"measurement": "skeletal anomalies that occurred during embryonic stages", "setting": "Fgfr3Y367C/+ pups; treatment during 5 days in pregnant mice", "value": "successfully repressed skeletal anomalies"}
    ]}
  ]
}
